Measurements: patent US10047075B2, “Pyridines and pyrimidines and use thereof” (Purdue Pharma L.P., priority 2014, dated 2018)
Like-named read-outs stand apart in the source and are kept apart here.

Experiments:
human Nav1.7 = human Nav1.7 (Homo sapiens, UniProt Q15858); test: FLIPR or FLIPR TETRA sodium dye assay with KCl and test article pre-incubation (CoroNa Green, veratridine + scorpion venom); format: cell-based
hNav1.7 = hNav1.7 (Homo sapiens, UniProt Q15858); test: Electrophysiology (EP) assay, whole-cell patch clamp, hNav1.7 expressing HEK-293 cells; format: cell-based; details: hNav1.7 HEK-293 cells; affinity for the inactivated state; read-out: Nav1.7 Activity (μM) EP assay Ki
Experimental: The hNav1.7 expressing HEK-293 cells are plated on 35 mm culture dishes pre-coated with poly-D-lysine in standard DMEM culture media (Mediatech, Inc., Herndon, Va.) and incubated in a 5% CO2 incubator at 37° C. Cultured cells are used approximately 12-48 hours after plating.
The hNav1.7 expressing HEK-293 cells are plated on tissue culture flasks in standard DMEM culture media (Mediatech, Inc.) and incubated in a 5% CO2 incubator at 37° C. Cultured cells are used approximately 12-48 hours after plating.
On the day of experimentation, the 35 mm dish is placed on the stage of an inverted microscope equipped with a perfusion system that continuously perfuses the culture dish with fresh recording media. A gravity driven superfusion system is used to apply test solutions directly to the cell under evaluation. This “shooter” system consists of an array of glass pipettes connected to a motorized horizontal translator. The outlet of the shooter is positioned approximately 100 μm from the cell of interest.
Whole cell currents are recorded using the whole-cell patch clamp configuration using an Axopatch 200B amplifier (Axon Instruments, Foster City Calif.), 1322A A/D converter (Axon Instruments) and pClamp software (v. 8; Axon Instruments) and stored on a personal computer. Gigaseals are formed and the whole-cell configuration is established in voltage clamp mode, and membrane currents generated by hNav1.7 channels are recorded. Borosilicate glass pipettes with resistance values between 1.5 and 2.0 MΩ when filled with pipette solution are used and series resistance (<5 MΩ) is compensated by 75-80%. Signals are sampled at 50 kHz and low pass filtered at 3 kHz.
Automated Electrophysiology: On the day of experimentation, cells are prepared by removing media and digesting with appropriate enzymes to suspend cells in external solution.
Whole cell currents are recorded using the whole-cell patch clamp configuration using an Patchliner (Nanion Technologies, Munich Germany), EPC 10 quadro amplifiers (HEKA, Bellmore, N.Y.) and PatchControl HT 10905 (Nanion Technologies) and PatchMaster v2x73 software (HEKA) and stored on a personal computer. Gigaseals are formed and the whole-cell configuration is established in voltage clamp mode, and membrane currents generated by hNav1.7 are recorded. NPC-16 chips have resistance values between 1.0 and 2.0 MΩ when filled with pipette solution and series resistance (<5 MΩ). Signals are sampled at 25 kHz and low pass filtered at 3 kHz.
After establishing the whole-cell configuration in voltage clamp mode, voltage protocols are run to establish the 1) test potential (Vmax), 2) holding potential (Vh), and 3) the conditioning potential for each cell.
After establishing the whole-cell configuration in voltage clamp mode, a standard I-V protocol is run to determine the potential at which the maximal current (Imax) is elicited. This potential is the test potential (Vt). To determine a conditioning potential at which 100% of channels are in the inactivated state, a standard steady-state inactivation (SSIN) protocol is run using a series of fifteen 100 ms-long depolarizing prepulses, incrementing in 10 mV steps, immediately followed by a 5 ms testing pulse to Vmax. This protocol also permits determination of the holding potential at which all channels are in the resting state.
For compounds causing significant retardation of recovery from inactivation, an estimate of the affinity for the inactivated state of the channel (Ki) is generated using the following protocol. From the negative, no residual inactivation, holding potential, the cell is depolarized to the conditioning voltage for 2-5 seconds, returned to the negative holding potential for 10-20 ms to relieve fast inactivation and then depolarized to the test potential for ˜15 ms. This voltage protocol is repeated every 10-15 seconds, first to establish a baseline in the absence of the test compound, then in the presence of the test compound. […]

[1] = recombinant human Nav1.7 in HEK293 cells

Sequence of hNav1.7 (Q15858 1-1977 isoform Q15858-3): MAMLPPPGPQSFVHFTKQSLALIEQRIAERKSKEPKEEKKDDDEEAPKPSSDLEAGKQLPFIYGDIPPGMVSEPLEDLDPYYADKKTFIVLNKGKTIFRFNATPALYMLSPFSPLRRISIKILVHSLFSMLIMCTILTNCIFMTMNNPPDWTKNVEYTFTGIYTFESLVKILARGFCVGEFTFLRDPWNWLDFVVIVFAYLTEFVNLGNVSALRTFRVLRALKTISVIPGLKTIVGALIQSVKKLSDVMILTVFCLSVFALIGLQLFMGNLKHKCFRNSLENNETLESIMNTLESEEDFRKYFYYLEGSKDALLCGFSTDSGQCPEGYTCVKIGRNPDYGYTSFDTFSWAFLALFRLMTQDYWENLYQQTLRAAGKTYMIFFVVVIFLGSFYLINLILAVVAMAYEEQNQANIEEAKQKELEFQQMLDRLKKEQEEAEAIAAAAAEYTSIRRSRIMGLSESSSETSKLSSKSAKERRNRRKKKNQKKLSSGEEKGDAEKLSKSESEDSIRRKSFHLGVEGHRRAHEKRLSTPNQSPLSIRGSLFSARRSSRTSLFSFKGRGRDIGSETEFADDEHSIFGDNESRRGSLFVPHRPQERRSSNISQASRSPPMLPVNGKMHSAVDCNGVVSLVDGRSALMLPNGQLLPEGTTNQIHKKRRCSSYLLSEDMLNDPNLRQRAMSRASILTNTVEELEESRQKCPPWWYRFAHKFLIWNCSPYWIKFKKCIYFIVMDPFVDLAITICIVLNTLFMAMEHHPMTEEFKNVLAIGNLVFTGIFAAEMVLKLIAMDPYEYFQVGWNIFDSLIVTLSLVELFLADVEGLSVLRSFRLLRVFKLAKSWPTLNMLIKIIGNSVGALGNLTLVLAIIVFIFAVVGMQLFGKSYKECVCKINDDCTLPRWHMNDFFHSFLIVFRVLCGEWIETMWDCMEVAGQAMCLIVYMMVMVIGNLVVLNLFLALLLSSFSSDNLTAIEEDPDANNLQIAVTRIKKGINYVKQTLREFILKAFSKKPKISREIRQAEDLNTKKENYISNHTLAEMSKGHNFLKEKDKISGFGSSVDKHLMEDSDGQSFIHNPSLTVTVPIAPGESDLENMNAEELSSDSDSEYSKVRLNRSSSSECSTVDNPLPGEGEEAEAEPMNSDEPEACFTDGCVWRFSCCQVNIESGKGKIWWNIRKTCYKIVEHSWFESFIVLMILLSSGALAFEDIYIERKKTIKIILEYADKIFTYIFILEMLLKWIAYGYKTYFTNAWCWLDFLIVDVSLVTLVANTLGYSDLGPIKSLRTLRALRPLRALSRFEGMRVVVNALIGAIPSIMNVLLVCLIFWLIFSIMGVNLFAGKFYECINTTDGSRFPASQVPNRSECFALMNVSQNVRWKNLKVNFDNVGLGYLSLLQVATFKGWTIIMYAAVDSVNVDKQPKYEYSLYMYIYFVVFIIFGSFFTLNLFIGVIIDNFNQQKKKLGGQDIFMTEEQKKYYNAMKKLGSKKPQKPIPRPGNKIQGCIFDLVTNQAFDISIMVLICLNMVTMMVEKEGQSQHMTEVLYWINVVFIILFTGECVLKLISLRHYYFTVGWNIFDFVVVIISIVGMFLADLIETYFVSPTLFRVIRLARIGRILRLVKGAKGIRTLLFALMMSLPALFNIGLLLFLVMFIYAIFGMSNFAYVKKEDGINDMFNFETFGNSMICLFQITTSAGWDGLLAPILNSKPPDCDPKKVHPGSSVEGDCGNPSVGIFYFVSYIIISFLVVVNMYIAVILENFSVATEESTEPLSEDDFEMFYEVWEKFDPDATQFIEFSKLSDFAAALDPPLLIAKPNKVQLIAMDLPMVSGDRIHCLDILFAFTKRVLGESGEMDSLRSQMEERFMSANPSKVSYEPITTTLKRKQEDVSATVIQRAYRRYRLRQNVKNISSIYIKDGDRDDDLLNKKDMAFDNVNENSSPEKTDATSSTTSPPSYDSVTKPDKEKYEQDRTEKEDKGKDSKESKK
Sequence of human Nav1.7 (Q15858 1-1977 isoform Q15858-3): as above

| Compound | IC50 (human Nav1.7; [1]) | Ki (hNav1.7) | IC50 (human Nav1.7) |
| --- | --- | --- | --- |
| OC[C@@H](O)c1cccc(-c2ccc3c(c2)COCCN3c2ccc(C(F)(F)F)cc2)n1 [Compound 62, (S)-1-(6-(1-(4-(trifluoromethyl)phenyl)-1,2,3,5-tetrahydrobenzo[e][1,4]oxazepin-7-yl)pyridin-2-yl)ethane-1,2-diol] | 0.419 ± 0.058 µM | 0.458 ± 0.078 µM |  |
| C[C@H](Nc1cc(C(N)=O)nc(-c2ccc3c(c2)OCCCN3c2ccc(C(F)(F)F)cc2)n1)C(N)=O [Compound 63, (S)-6-((1-amino-1-oxopropan-2-yl)amino)-2-(5-(4-(trifluoromethyl)phenyl)-2,3,4,5-tetrahydrobenzo[b][1,4]oxazepin-8-yl)pyrimidine-4-carboxamide] | 0.246 ± 0.029 µM | 0.344 ± 0.1 µM |  |
| CN1CCN(c2ccc(C(F)(F)F)cc2)c2ccc(-c3cccc(C(N)=O)n3)cc2C1 [Compound 85, 6-(4-methyl-1-(4-(trifluoromethyl)phenyl)-2,3,4,5-tetrahydro-1H-benzo[e][1,4]diazepin-7-yl)picolinamide] | 0.607 ± 0.086 µM | 0.399 ± 0.2 µM |  |
| OC[C@@H](O)c1cccc(-c2ccc3c(c2)CN(CC2CC2)CCN3c2ccc(C(F)(F)F)cc2)n1 [Compound 87, (S)-1-(6-(4-(cyclopropylmethyl)-1-(4-(trifluoromethyl)phenyl)-2,3,4,5-tetrahydro-1H-benzo[e][1,4]diazepin-7-yl)pyridin-2-yl)ethane-1,2-diol] |  | 0.548 ± 0.089 µM | 1.32 ± 0.133 µM |
| CC(=O)N1CCN(c2ccc(C(F)(F)F)cc2)c2ccc(-c3cccc(C(N)=O)n3)cc2C1 [Compound 91, 6-(4-acetyl-1-(4-(trifluoromethyl)phenyl)-2,3,4,5-tetrahydro-1H-benzo[e][1,4]diazepin-7-yl)picolinamide] | 0.375 ± 0.062 µM | 0.3 ± 0.033 µM |  |
| CC(=O)N1CCN(c2ccc(C(F)(F)F)cc2)c2ccc(-c3cccc([C@H](O)CO)n3)cc2C1 [Compound 96, (S)-1-(7-(6-(1,2-dihydroxyethyl)pyridin-2-yl)-1-(4-(trifluoromethyl)phenyl)-1,2,3,5-tetrahydro-4H-benzo[e][1,4]diazepin-4-yl)ethan-1-one] | 0.662 ± 0.035 µM | 0.627 ± 0.134 µM |  |
| NC(=O)N1CCN(c2ccc(C(F)(F)F)cc2)c2ccc(-c3cccc([C@H](O)CO)n3)cc2C1 [Compound 98, (S)-7-(6-(1,2-dihydroxyethyl)pyridin-2-yl)-1-(4-(trifluoromethyl)phenyl)-1,2,3,5-tetrahydro-4H-benzo[e][1,4]diazepin-4-carboxamide] |  | 0.451 ± 0.092 µM | 0.973 ± 0.099 µM |
| O=C(CO)N1CCN(c2ccc(C(F)(F)F)cc2)c2ccc(-c3cccc([C@H](O)CO)n3)cc2C1 [Compound 99, (S)-1-(7-(6-(1,2-dihydroxyethyl)pyridin-2-yl)-1-(4-(trifluoromethyl)phenyl)-1,2,3,5-tetrahydro-4H-benzo[e][1,4]diazepin-4-yl)-2-hydroxyethan-1-one] | 0.896 ± 0.186 µM | 1.23 ± 0.364 µM |  |
| NC(=O)CN1CCN(c2ccc(C(F)(F)F)cc2)c2ccc(-c3cccc([C@H](O)CO)n3)cc2C1 [Compound 103, (S)-2-(7-(6-(1,2-dihydroxyethyl)pyridin-2-yl)-1-(4-(trifluoromethyl)phenyl)-1,2,3,5-tetrahydro-4H-benzo[e][1,4]diazepin-4-yl)acetamide] |  | 0.299 ± 0.068 µM | 1.05 ± 0.055 µM |
| CNC(=O)CN1CCN(c2ccc(C(F)(F)F)cc2)c2ccc(-c3cccc([C@H](O)CO)n3)cc2C1 [Compound 105, (S)-2-(7-(6-(1,2-dihydroxyethyl)pyridin-2-yl)-1-(4-(trifluoromethyl)phenyl)-1,2,3,5-tetrahydro-4H-benzo[e][1,4]diazepin-4-yl)-N-methylacetamide] | 0.644 ± 0.025 µM |  |  |
| N#CCN1CCN(c2ccc(C(F)(F)F)cc2)c2ccc(-c3cccc([C@H](O)CO)n3)cc2C1 [Compound 106, (S)-2-(7-(6-(1,2-dihydroxyethyl)pyridin-2-yl)-1-(4-(trifluoromethyl)phenyl)-1,2,3,5-tetrahydro-4H-benzo[e][1,4]diazepin-4-yl)acetonitrile] | 0.581 ± 0.038 µM |  |  |
| OC[C@@H](O)c1cccc(-c2ccc3c(c2)CN(Cc2ncc[nH]2)CCN3c2ccc(C(F)(F)F)cc2)n1 [Compound 107, (S)-1-(6-(4-((1H-imidazol-2-yl)methyl)-1-(4-(trifluoromethyl)phenyl)-2,3,4,5-tetrahydro-1H-benzo[e][1,4]diazepin-7-yl)pyridin-2-yl)ethane-1,2-diol] | 0.669 ± 0.053 µM |  |  |
| NC(=O)c1cccc(-c2ccc3c(c2)CN(CC(O)CO)CCN3c2ccc(C(F)(F)F)cc2)n1 (stereo not shown) [Compound 109, 6-(4-(2,3-dihydroxypropyl)-1-(4-(trifluoromethyl)phenyl)-2,3,4,5-tetrahydro-1H-benzo[e][1,4]diazepin-7-yl)picolinamide] | 5.7 ± 0.663 µM |  |  |
| NC(=O)c1cccc(-c2ccc3c(c2)OCCC3c2ccc(C(F)(F)F)cc2)n1 (stereo not shown) [Compound 110, 6-(4-(4-(trifluoromethyl)-phenyl)chroman-7-yl)-picolinamide] | 0.142 ± 0.038 µM | 0.161 ± 0.07 µM |  |
| C[C@H](Nc1cc(C(N)=O)nc(-c2ccc3c(c2)OCCC3c2ccc(C(F)(F)F)cc2)n1)C(N)=O (stereo partly drawn) [Compound 111, 6-(((S)-1-amino-1-oxopropan-2-yl)amino)-2-(4-(4-(trifluoromethyl)phenyl)chroman-7-yl)pyrimidine-4-carboxamide] | 0.379 ± 0.044 µM | 0.459 ± 0.1 µM |  |
| C[C@H](Nc1cc(C(N)=O)nc(-c2ccc3c(c2)OCCC3Cc2ccc(F)cc2)n1)C(N)=O (stereo partly drawn) [Compound 112, 6-(((S)-1-amino-1-oxopropan-2-yl)amino)-2-(4-(4-fluorobenzyl)chroman-7-yl)pyrimidine-4-carboxamide] | 5.32 ± 0.425 µM |  |  |
| NC(=O)c1cc([C@H](O)CO)cc(-c2ccc3c(c2)CN(CC2CC2)CCN3c2ccc(C(F)(F)F)cc2)n1 [Compound 122, (S)-6-(4-(cyclopropylmethyl)-1-(4-(trifluoromethyl)phenyl)-2,3,4,5-tetrahydro-1H-benzo[e][1,4]diazepin-7-yl)-4-(1,2-dihydroxyethyl)-picolinamide] | 7.21 ± 0.341 µM |  |  |
| NC(=O)c1cc(-c2ccc3c(c2)CN(CC2CC2)CCN3c2ccc(C(F)(F)F)cc2)cc([C@H](O)CO)n1 [Compound 123, (S)-4-(4-(cyclopropylmethyl)-1-(4-(trifluoromethyl)phenyl)-2,3,4,5-tetrahydro-1H-benzo[e][1,4]diazepin-7-yl)-6-(1,2-dihydroxyethyl)-picolinamide] | 9.61 ± 0.339 µM |  |  |
| CC(C)CN1CCN(S(C)(=O)=O)Cc2cc(-c3cccc([C@H](O)CO)n3)ccc21 [Compound 124, (S)-1-(6-(1-isobutyl-4-(methylsulfonyl)-2,3,4,5-tetrahydro-1H-benzo-[e][1,4]diazepin-7-yl)pyridin-2-yl)ethane-1,2-diol] |  | 2.14 ± 0.586 µM |  |
| CC(C)CN1CCN(S(C)(=O)=O)Cc2cc(-c3cccc([C@H](O)[C@@H](O)C(N)=O)n3)ccc21 [Compound 125, (2R,3S)-2,3-dihydroxy-3-(6-(1-isobutyl-4-(methylsulfonyl)-2,3,4,5-tetrahydro-1H-benzo[e][1,4]diazepin-7-yl)pyridin-2-yl)propanamide] |  | 7.1 ± 2.45 µM |  |
